In one data set the test system is DT40 lymphoma cells.
Assay: not given
Conditions: in cancer cells, at 50 μM of compound 5-I; sensitizing effect; cited from earlier work.
As to `N#Cc1ccc2cc3c(=O)[nH]c(=O)nc-3n(-c3cccc(-c4nnn[nH]4)c3)c2c1` [compound 5-I], the “maximal efficacy, cell viability” value is “around 10%”.

A further data set deals with hTdp2 (Rec) (Homo sapiens (Human), UniProt O95551). The data set is described as follows: SUMO hTDP2cat fluorescence-based biochemical assay.
Chain of hTdp2 (Rec) (O95551 113-362): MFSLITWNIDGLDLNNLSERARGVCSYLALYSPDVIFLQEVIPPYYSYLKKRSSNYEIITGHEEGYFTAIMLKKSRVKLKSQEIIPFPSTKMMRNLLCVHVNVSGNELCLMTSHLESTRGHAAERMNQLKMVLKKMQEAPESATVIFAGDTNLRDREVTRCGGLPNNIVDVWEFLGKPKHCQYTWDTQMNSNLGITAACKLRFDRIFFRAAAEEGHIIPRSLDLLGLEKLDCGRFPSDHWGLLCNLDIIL
Conditions: not given
The protocol:
Biochemical Potency. The enzymatic activity of TDP2 was measured with a SUMO hTDP2cat fluorescence-based biochemical assay. […] After a pre-incubation period of 10 minutes, 5 μL of substrate 5′-(6-FAM-NHS)(5′-tyrosine)GATCT(3′-BHQ-1)-3′ (1 μM, final concentration of 0.25 μM) was added, and the reaction was allowed to proceed at 25° C. for 60 minutes. The fluorescence was measured, and the data was processed as described previously for 14M_zTDP2.
Compound `N#Cc1ccc2cc3c(=O)n(-c4ccc(NC(=O)Oc5ccccc5)cc4)c(=O)nc-3n(-c3ccc(O)cc3)c2c1` [Example 133, Phenyl-(4-(8-cyano-10-(4-hydroxyphenyl)-2,4-dioxo-4,10-dihydropyrimido[4,5-b]quinolin-3(2H)-yl)phenyl)carbamate] returned a half-inhibitory concentration (IC50) of 59 ± 4 nM. Same read-out and setting: as for `N#Cc1ccc2cc3c(=O)[nH]c(=O)nc-3n(-c3ccc(Oc4ccc(NC(=O)Oc5ccccc5)cc4)cc3)c2c1` [Example 118], the figure is 795 ± 40 nM; as for `N#Cc1ccc2cc3c(=O)n(-c4cccc(NC(=O)Oc5ccccc5)c4)c(=O)nc-3n(-c3ccc(O)cc3)c2c1` [Example 132, Phenyl-(3-(8-cyano-10-(4-hydroxyphenyl)-2,4-dioxo-4,10-dihydropyrimido[4,5-b]quinolin-3(2H)-yl)phenyl)carbamate], 119 ± 4 nM. The same measure, in the same setting: as for `N#Cc1ccc2cc3c(=O)n(-c4ccc(NP(=O)(Oc5ccccc5)Oc5ccccc5)cc4)c(=O)nc-3n(-c3ccc(O)cc3)c2c1` [Example 135, Diphenyl-(4-(8-cyano-10-(4-hydroxyphenyl)-2,4-dioxo-4,10-dihydropyrimido[4,5-b]quinolin-3(2H)-yl)phenyl)phosphoramidate], the figure is 185 ± 9 nM; as for `N#Cc1ccc2cc3c(=O)n(-c4cccc(NP(=O)(Oc5ccccc5)Oc5ccccc5)c4)c(=O)nc-3n(-c3ccc(O)cc3)c2c1` [Example 134, Diphenyl-(3-(8-cyano-10-(4-hydroxyphenyl)-2,4-dioxo-4,10-dihydropyrimido[4,5-b]quinolin-3(2H)-yl)phenyl)phosphoramidate], 277 ± 11 nM; as for `N#Cc1ccc2cc3c(=O)n(-c4ccc(CNP(=O)(Oc5ccccc5)Oc5ccccc5)cc4)c(=O)nc-3n(-c3ccc(O)cc3)c2c1` [Example 136, Diphenyl-(4-(8-cyano-10-(4-hydroxyphenyl)-2,4-dioxo-4,10-dihydropyrimido[4,5-b]quinolin-3(2H)-yl)benzyl)phosphoramidate], 119 ± 3 nM.

Staying with this data set, now noted: SUMO hTDP2cat 3.13 pM, substrate 0.25 μM, 25° C., 60 minutes; read-out: hTdp2 (Rec) IC50.
For the compound `CC1(C)OB(c2cccc(Oc3ccc(-n4c5nc(=O)[nH]c(=O)c-5cc5ccc(C#N)cc54)cc3)c2)OC1(C)C` [Example 119, 2,4-Dioxo-10-(4-(3-(4,4,5,5-tetramethyl-1,3,2-dioxaborolan-2-yl)phenoxy)phenyl)-2,3,4,10-tetrahydropyrimido[4,5-b]quinoline-8-carbonitrile], the IC50 worked out at 8.28 ± 0.44 nM.

On to `N#Cc1ccc2cc3c(=O)[nH]c(=O)nc-3n(-c3ccc(OCc4cccc(B(O)O)c4)cc3)c2c1` [Example 123, (3-((4-(8-Cyano-2,4-dioxo-3,4-dihydropyrimido [4,5-b]quinolin-10(2H)-yl)phenoxy)methyl)phenyl) boronic acid], for which the IC50 was 39 ± 3 nM. For `CC1(C)OB(c2ccc(COc3ccc(-n4c5nc(=O)[nH]c(=O)c-5cc5ccc(C#N)cc54)cc3)cc2)OC1(C)C` [Example 122, 2,4-Dioxo-10-(4-((4-(4,4,5,5-tetramethyl-1,3,2-dioxaborolan-2-yl)benzyl)oxy)phenyl)-2,3,41,10-tetrahydropyrimido[4,5-b]quinoline-8-carbonitrile], the IC50 worked out at 359 ± 32 nM. As for `O=c1nc2n(-c3ccc(Oc4cccc(B(O)O)c4)cc3)c3cc(Cl)ccc3cc-2c(=O)[nH]1` [Example 143, (3-(4-(8-Chloro-2,4-dioxo-3,4-dihydropyrimido[4,5-b]quinolin-10(2H)yl)phenoxy)phenyl) boronic acid], the half-maximal inhibitory concentration (IC50) is 3.85 ± 0.37 nM.

As to `CC1(C)OB(c2cccc(COc3ccc(-n4c5nc(=O)[nH]c(=O)c-5cc5ccc(C#N)cc54)cc3)c2)OC1(C)C` [Example 121, 2,4-Dioxo-10-(4-((3-(4,4,5,5-tetramethyl-1,3,2-dioxaborolan-2-yl)benzyl)oxy)phenyl)-2,3,4,10-tetrahydropyrimido[4,5-b]quinoline-8-carbonitrile], the IC50 is 47 ± 4 nM. Still for that read-out and setting: under `N#Cc1ccc2cc3c(=O)[nH]c(=O)nc-3n(-c3ccc(OCc4ccc(B(O)O)cc4)cc3)c2c1` [Example 124, (4-((4-(8-Cyano-2,4-dioxo-3,4-dihydropyrimido [4,5-b]quinolin-10(2H)-yl)phenoxy)methyl)phenyl) boronic acid] stands 239 ± 18 nM. The same measure, in the same setting: as for `N#Cc1ccc2cc3c(=O)[nH]c(=O)nc-3n(-c3ccc(Oc4cccc(B(O)O)c4)cc3)c2c1` [Example 120, (3-(4-(8-Cyano-2,4-dioxo-3,4-dihydropyrimido[4,5-b]quinolin-10(2H)-yl)phenoxy)phenyl) boronic acid], the figure is 5.01 ± 0.69 nM.

Usually IC50 stands for the concentration needed to halve the response being measured.

The values are drawn from patent publication US10617706B2, “Compounds for cancer chemotherapeutic sensitization” (Regents of the University of Minnesota, priority 2018, dated 2020).
